Measured values from patent publication US10526343B2, “Heterocyclic systems and pharmaceutical applications thereof” (University of Sharjah, priority 2018, dated 2020).

Tests used:
[1] = test system: UDH-6 (environmental isolate, S. haemolyticus); assay: MIC by broth microdilution; format: cell-based
Experimental: (§1) Bacteria of the genus Staphylococcus were selected for MIC investigation due to its clinical importance. Compounds showing activity against S. aureus (ATCC 25923) were tested against 10 multidrug-resistant strains of Staphylococcus species, including: clinical isolates methicillin-resistant Staphylococcus aureus (MRSA) strains MRSA-1, MRSA-2, and MRSA-3, and environmental isolates S. saprophyticus (strains UDH-1, UDH-2, UDH-3 and UDH-4), S. haemolyticus (strains UDH-6 and UDH-7), and S. epidermidis strain UDH-5.
(§2) All these strains were resistant to at least three antibiotics from different classes, as confirmed by a disk diffusion assay.
(§3) A broth microdilution method was used to measure MIC according to the Clinical and Laboratory Standards Institute guidelines. Two-fold serial dilutions of the test compound (8 concentrations ranged between 100-0.78 μg/mL) were tested. Two reference antibiotics were used as quality controls (ciprofloxacin and amikacin). In each experiment, solvent (DMSO) was used as a negative control, un-treated control (composing of bacteria in Mueller-Hinton broth) was used as a growth control, blank (culture media alone) was used as sterility control. The 96-well microplate with the test compounds was incubated for 20 hours at 37° C. Turbidity in wells indicated bacterial growth. […] For the definite determination of MIC, CellTiter-Blue® Cell Viability Assay (Promega, USA) was used (as above). The MIC was defined as the lowest compound concentration that prevented the color change of the Cell Viability solution (absence of bacterial growth; thus, suspension remained blue in color). For the definite determination of MIC, CellTiter-Blue® Cell Viability Assay (Promega, USA) was used (as above). To each well of the 96-well microplate, 20 μL of the Cell Viability Assay solution was added to the overnight (20 hours culture) and incubated at 37° C. for 4 hours. After the end of the incubation, pink and blue colors were used to differentiate viable from dead bacterial suspensions, respectively. The MIC was defined as the lowest compound concentration that prevented the color change.

[2] = test system: UDH-7 (environmental isolate, S. haemolyticus); assay: MIC by broth microdilution; format: cell-based
Experimental: as §1, §2, §3

[3] = test system: UDH-3 (environmental isolate, S. saprophyticus); assay: MIC by broth microdilution; format: cell-based
Experimental: as §1, §2, §3

[4] = test system: UDH-4 (environmental isolate, S. saprophyticus); assay: MIC by broth microdilution; format: cell-based; conditions: Staphylococcus saprophyticus
Experimental: as §1, §2, §3

[5] = test system: UDH-1 (environmental isolate, S. saprophyticus); assay: MIC by broth microdilution; format: cell-based
Experimental: as §1, §2, §3

[6] = test system: UDH-5 (environmental isolate, S. epidermidis); assay: MIC by broth microdilution; format: cell-based; conditions: Staphylococcus epidermidis
Experimental: as §1, §2, §3

[7] = test system: UDH-2 (environmental isolate, S. saprophyticus); assay: MIC by broth microdilution; format: cell-based; conditions: Staphylococcus saprophyticus
Experimental: as §1, §2, §3

[8] = test system: MRSA-1; assay: Examination of bacterial cell walls by atomic force microscope (AFM); format: cell-based, Staphylococcus aureus; conditions: MRSA-1, 25 μg/mL, 4 hours
Experimental: Atomic force microscopy (AFM) provides three-dimensional images of the surfaces of living microbial cells in real time and in high resolution with minimal sample preparation. Compound 1o was tested against the bacterial strain MRSA-1 and the slides were examined under AFM. Specifically, FIGS. 5A1 and 5B1 show an untreated MRSA-1 strain at scan sizes of 10 μm^2 and […], respectively, and FIGS. 5A2 and 5B2 show a MRSA-1 strain treated with compound 1o at scan sizes of 10 μm^2 and 5 μm^2, respectively. […] Rapid bacterial killing coupled with cell wall damage as evidenced in the AFM images indicate the action of compound 1o on the cell wall, as reported for the known antibiotics like polymyxin, which rapidly breaks the cell membrane of Gram-negative bacteria, causing fast cell death.
Compound 1o was tested against the bacterial strain MRSA-1. Exponentially growing bacterial cells were prepared in Mueller-Hinton broth at a concentration of approximately 10^8 CFU/mL by adjusting the turbidity to 0.5 with a McFarland™ densitometer (DEN-1B, Grant-Bio, UK). […]

[9] = Staphylococcus haemolyticus, environmental isolate
[10] = Staphylococcus saprophyticus, environmental isolate

COC(=O)CC1COc2c(cc3c4c2CCCN4CCC3)-c2c(NC(C)(C)C)n3c(-c4ccc(Br)cc4)c(C)sc3[n+]21 (stereo not drawn) [Compound 1o]
MIC [1, 9]: 6.25 µg/mL
times lower than MIC of ciprofloxacin ([1]; UDH-6): approximately 10 times
MIC [2, 9]: 6.25 µg/mL
times lower than MIC of ciprofloxacin ([2]; UDH-7): approximately 10 times
MIC [3, 10]: 3.12 µg/mL
times lower than MIC of ciprofloxacin ([3]; UDH-3): approximately 20 times
MIC [4]: 6.25 µg/mL
MIC [5, 10]: 6.25 µg/mL
times lower than MIC of ciprofloxacin ([5]; UDH-1): approximately 10 times
MIC [6]: 3.12 µg/mL
MIC [7]: 6.25 µg/mL
bacterial cell morphology under AFM [8]: Bacterial cell shape distortion and leakage of the intracellular contents
